Experimental data taken from US11485733B2, “Azaquinoline derivatives” (BAYER ANIMAL HEALTH GMBH, priority 2017, dated 2022).

Legend:
Dirofilaria immitis = Dirofilaria immitis (DIROIM L4) larval motility; conditions: 72 h, read-out: EC50 (reduction of motility)
Haemonchus contortus = Haemonchus contortus larval mortality; conditions: 120 h, read-out: activity (percentage of larval mortality)
Experimental: In Vitro Assay 7: Haemonchus contortus
Solvent: Dimethyl Sulfoxide
Approximately 40 larvae of the red stomach worm (Haemonchus contortus) are transferred into a test tube containing compound solution.
After 5 days the percentage of larval mortality is recorded. 100% efficacy means all larvae are killed, 0% efficacy means no larvae are killed.

[1] = system: Nippostrongylus brasiliensis; assay: Nippostrongylus brasiliensis (NIPOBR) adult worms, acetylcholine esterase readout; conditions: at 1 μg/ml (1 ppm), read-out: activity (reduction of AChE compared to negative control)
Summary of the method: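 Adult worms washed in saline with penicillin/streptomycin/amphotericin B, then incubated in medium with test compound (DMSO) at final 10 μg/ml (10 ppm) or 1 μg/ml (1 ppm). Acetylcholine esterase activity in a medium aliquot served as anthelmintic readout, compared with negative control.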

[2] = system: Dirofilaria immitis microfilariae; assay: Dirofilaria immitis microfilariae (DIROIM L1) motility; conditions: 72 h, read-out: EC50 (reduction of motility)
Cooperia curticei = Cooperia curticei larval mortality; conditions: 120 h, read-out: activity (percentage of larval mortality)
Experimental: In Vitro Assay 6: Cooperia curticei
Solvent: Dimethyl Sulfoxide
Approximately 40 nematode larvae (Cooperia curticei) are transferred into a test tube containing the compound solution.
After 5 days percentage of larval mortality is recorded. 100% efficacy means all larvae are killed; 0% efficacy means no larvae are killed.

D. immitis Slo-1 = D. immitis Slo-1 (Dirofilaria immitis, UniProt I0DFK5); assay: D. immitis Slo-1, action at a recombinant CHO cell line (membrane potential, FLIPR); type: cell-based
[3] = system: Litomosoides sigmodontis third-stage larvae; assay: Litomosoides sigmodontis (LTMOSI L3) larval motility; conditions: 72 h, read-out: EC50 (reduction of motility)
Experimental: In Vitro Assay 6: Litomosoides sigmodontis (LTMOSI L3)
10 Litomosoides sigmodontis third-stage larvae, which were freshly isolated from the pleural cavity of an infected rodent, were added to wells of a microtitre plate containing a nutrient medium and the test compound in DMSO. Compounds were tested in concentration-response assay in duplicate. Larvae exposed to DMSO and no test compounds were used as negative controls. Larvae were evaluated after 72 h of incubation with the compound. Efficacy was determined as the reduction of motility in comparison to the negative control. Based on the evaluation of a wide concentration range, concentration-response curves as well as EC50-values were calculated.

C. elegans Slo-1a = C. elegans Slo-1a (Caenorhabditis elegans, UniProt Q95V25); conditions: pE50 (negative decadic logarithm of EC50), CHO cells expressing C. elegans Slo-1a; voltage sensitive dye, 70 mM KCl
Chain of C. elegans Slo-1a (Q95V25 whole entry): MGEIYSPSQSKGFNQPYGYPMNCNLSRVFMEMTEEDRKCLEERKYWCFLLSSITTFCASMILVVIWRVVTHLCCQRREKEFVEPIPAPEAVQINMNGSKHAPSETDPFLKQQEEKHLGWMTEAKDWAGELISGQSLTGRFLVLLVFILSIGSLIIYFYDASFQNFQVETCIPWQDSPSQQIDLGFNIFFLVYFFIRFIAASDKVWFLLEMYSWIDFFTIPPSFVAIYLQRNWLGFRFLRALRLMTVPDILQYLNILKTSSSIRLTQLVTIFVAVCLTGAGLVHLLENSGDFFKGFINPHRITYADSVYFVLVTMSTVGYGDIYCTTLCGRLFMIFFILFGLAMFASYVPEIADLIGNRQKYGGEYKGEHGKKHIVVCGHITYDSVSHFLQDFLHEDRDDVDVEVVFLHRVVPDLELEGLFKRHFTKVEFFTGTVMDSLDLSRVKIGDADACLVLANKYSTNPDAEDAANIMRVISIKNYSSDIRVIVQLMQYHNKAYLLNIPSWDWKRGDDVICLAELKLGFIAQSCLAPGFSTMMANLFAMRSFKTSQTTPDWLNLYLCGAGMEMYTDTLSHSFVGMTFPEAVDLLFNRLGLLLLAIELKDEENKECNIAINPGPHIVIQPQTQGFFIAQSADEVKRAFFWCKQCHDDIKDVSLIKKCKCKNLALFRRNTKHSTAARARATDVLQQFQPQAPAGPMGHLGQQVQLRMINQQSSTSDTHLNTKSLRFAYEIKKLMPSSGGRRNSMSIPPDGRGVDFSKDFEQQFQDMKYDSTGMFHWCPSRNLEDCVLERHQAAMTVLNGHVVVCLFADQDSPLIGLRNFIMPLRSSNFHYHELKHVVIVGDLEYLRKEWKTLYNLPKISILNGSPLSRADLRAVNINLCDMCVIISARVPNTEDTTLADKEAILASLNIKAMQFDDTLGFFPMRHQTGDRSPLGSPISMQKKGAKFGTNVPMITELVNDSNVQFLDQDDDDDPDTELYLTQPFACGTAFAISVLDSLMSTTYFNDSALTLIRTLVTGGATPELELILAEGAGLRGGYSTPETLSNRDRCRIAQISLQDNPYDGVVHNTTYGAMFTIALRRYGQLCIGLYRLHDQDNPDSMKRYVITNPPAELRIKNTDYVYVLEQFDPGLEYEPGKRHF
Experimental: Generation of a Stable C. elegans CHO Cell Line
A CHO cell line was obtained from ATCC, code ATCC CRL-9096. […] The transfection solution included 300 μL OptiMEM (Life Technologies, Nr.: 31985), 2 μL (=6 μg) of plasmid DNA containing the C. elegans Slo 1a gene and 9 μL FugeneHD (Promega, Nr.: E2311), and was added to the cells prior to incubation for 48 hours at 37° C., 5% CO2. The transfection medium was exchanged for the selection medium which contains additional G418 (2 mg/ml, Invitrogen, Nr.: 10131) and the cells were seeded into 384 well plates (300 cells/well). After a few weeks, the remaining surviving cells were tested with a voltage sensitive dye (Membrane Potential Assay Kit, Molecular Devices Nr.: R8034) for K+ channel expression. Positive cell clones were purified by the limited dilution technique. For this the clone with the highest and most robust signal in the voltage sensitive dye assay was further subcloned (incubated) in 384 well plates (0.7 cells/well) in order to obtain clonal purity. This generated a final stable CHO cell line expressing the C. elegans Slo-1a.
Cells were cultured at 37° C. and 5% CO2 in MEMalpha with Gutamax I (Invitrogen, Nr.: 32571), supplemented with 10% (v/v) heat inactivated fetal bovine serum (Invitrogen, Nr.: 10500), G418 (1 mg/ml, Invitrogen, Nr.: 10131). Cells were detached using Accutase (Sigma, Nr.: A6964).
Membrane Potential Measurements
Laboratory compound testing was performed on 384-well microtiter plates (MTPs, Greiner, Nr.: 781092). 8000 cells/well were plated onto 384-well MTPs and cultured for 20 to 24 hours at 37° C. and 5% CO2. After removal of the cell culture medium, the cells were washed once with tyrode (150 mM NaCl, 0.3 mM KCl, 2 mM CaCl2, 1 mM MgCl2, 0.8 mM NaH2PO4, 5 mM Glucose, 28 mM Hepes, pH 7.4) and then loaded with the voltage sensitive dye of the Membrane Potential Assay Kit diluted in tyrode for 1 h at room temperature.
After starting the measurement of fluorescence using a FLIPR Tetra (Molecular Devices, Exc. 510-545 nm, Emm. 565-625 nm), test compounds were added followed by the addition of KCl tyrode (final assay concentration: 70 mM KCl, 2 mM CaCl2, 1 mM MgCl2, 0.8 mM NaH2PO4, 5 mM Glucose, 28 mM Hepes, pH 7.4, including the voltage sensitive dye). The measurement was completed after 7 minutes.
The data were evaluated by using the ActivityBase XLfit software (IDBS) for curve fitting and calculation of the half-maximal effective concentration (EC50) and are reported as negative decadic logarithm (pE50).

Chain of D. immitis Slo-1 (I0DFK5 1-1119): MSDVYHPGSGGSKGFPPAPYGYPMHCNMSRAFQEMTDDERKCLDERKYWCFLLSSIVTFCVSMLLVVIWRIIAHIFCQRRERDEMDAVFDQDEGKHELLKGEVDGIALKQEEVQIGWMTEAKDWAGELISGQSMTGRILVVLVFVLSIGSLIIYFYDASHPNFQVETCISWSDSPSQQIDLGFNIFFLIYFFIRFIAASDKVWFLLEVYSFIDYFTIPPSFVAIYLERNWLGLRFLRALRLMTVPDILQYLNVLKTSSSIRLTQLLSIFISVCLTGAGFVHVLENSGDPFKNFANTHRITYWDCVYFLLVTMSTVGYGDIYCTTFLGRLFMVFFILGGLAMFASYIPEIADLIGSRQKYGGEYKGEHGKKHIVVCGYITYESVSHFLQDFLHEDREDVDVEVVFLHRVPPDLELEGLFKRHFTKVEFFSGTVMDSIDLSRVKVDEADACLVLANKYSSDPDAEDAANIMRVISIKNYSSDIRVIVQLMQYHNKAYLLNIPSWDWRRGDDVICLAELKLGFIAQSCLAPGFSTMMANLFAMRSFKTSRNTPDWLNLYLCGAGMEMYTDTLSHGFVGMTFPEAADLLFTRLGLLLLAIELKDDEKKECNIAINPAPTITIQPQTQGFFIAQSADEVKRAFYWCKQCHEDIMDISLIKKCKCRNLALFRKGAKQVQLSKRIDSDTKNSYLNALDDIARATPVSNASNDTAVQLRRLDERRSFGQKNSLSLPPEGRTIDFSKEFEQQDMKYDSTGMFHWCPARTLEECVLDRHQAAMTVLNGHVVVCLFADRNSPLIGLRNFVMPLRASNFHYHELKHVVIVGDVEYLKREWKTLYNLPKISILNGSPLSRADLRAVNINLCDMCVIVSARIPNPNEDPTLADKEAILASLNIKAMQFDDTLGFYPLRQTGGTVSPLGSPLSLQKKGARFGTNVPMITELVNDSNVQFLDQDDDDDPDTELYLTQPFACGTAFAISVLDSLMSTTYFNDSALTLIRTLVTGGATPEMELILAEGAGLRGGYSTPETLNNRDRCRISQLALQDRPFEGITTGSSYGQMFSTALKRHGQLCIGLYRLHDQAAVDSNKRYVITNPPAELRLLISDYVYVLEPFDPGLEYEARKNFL

COc1c(C(=O)N[C@H]2CCOc3ccccc32)nnc2c(-c3cccc(Cl)c3Cl)cccc12 [Example T5-7, 8-(2,3-Dichlorophenyl)-N-[(4S)-3,4-dihydro-2H-chromen-4-yl]-4-methoxycinnoline-3-carboxamide]
EC50 (Dirofilaria immitis): < 0.1 µg/mL | mortality at 20 ppm (Haemonchus contortus): 90% | inhibition at 1 µg/mL [1]: > 80% | EC50 [2]: < 0.1 µg/mL | mortality at 4 ppm (Cooperia curticei): 100% | mortality at 20 ppm (Cooperia curticei): 100% | EC50 (D. immitis Slo-1): 31.6 to 316 nM | EC50 [3]: < 0.1 µg/mL | EC50 (C. elegans Slo-1a): < 3.16 nM
